Measurements published in US20030118597A1 (priority 2001, published 2003).

How the values were obtained:
[1] = preliminary data, animal model
[2] = test system: hypophyseal adrenal system; details: cited from earlier work
[3] = test system: microsomal cyclooxygenase system; details: animal models; cited from earlier work

Molecule	allergen component of the venom [1]	potency of released cortisol relative to hydrocortisone [2] [times]	strength relative to Indomethacine [3] [times]
Phospholipase A2	major allergen component		
CC[C@H](C)[C@H](NC(=O)CN)C(=O)NCC(=O)N[C@@H](C)C(=O)N[C@H](C(=O)N[C@@H](CC(C)C)C(=O)N[C@@H](CCCCN)C(=O)N[C@H](C(=O)N[C@@H](CC(C)C)C(=O)N[C@H](C(=O)N[C@H](C(=O)NCC(=O)N[C@@H](CC(C)C)C(=O)N1CCC[C@H]1C(=O)N[C@@H](C)C(=O)N[C@@H](CC(C)C)C(=O)N[C@H](C(=O)N[C@@H](CO)C(=O)N[C@@H](Cc1c[nH]c2ccccc12)C(=O)N[C@H](C(=O)N[C@@H](CCCCN)C(=O)N[C@@H](CCCNC(=N)N)C(=O)N[C@@H](CCCCN)C(=O)N[C@@H](CCCNC(=N)N)C(=O)N[C@@H](CCC(N)=O)C(=O)N[C@@H](CCC(N)=O)C(N)=O)[C@@H](C)CC)[C@@H](C)CC)[C@@H](C)O)[C@@H](C)O)C(C)C)C(C)C [Melittin]	major allergen component	100	
Adolapin [Ado lapin]			70
